Data published in ChEMBL document CHEMBL1155194, “Synthesis and characterization of environment-sensitive fluorescent ligands for human 5-HT1A receptors with 1-arylpiperazine structure” (J Med Chem, 2009).

Biological target: T1, 5-hydroxytryptamine receptor 1A (Homo sapiens, UniProt P08908)
T1 sequence (P08908 whole entry): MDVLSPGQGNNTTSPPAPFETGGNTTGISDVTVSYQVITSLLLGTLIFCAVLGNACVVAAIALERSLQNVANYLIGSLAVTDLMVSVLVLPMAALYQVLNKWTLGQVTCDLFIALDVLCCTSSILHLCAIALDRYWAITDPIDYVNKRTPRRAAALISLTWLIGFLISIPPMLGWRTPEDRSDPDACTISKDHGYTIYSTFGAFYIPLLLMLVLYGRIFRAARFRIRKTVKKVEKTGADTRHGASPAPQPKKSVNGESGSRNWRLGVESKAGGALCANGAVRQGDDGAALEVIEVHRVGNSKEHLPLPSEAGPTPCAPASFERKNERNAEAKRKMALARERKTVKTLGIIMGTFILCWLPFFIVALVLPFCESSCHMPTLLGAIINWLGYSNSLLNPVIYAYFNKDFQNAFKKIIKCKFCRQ
Test: biochemical
Description: Displacement of [3H]8-OH-DPAT from human recombinant 5HT1A receptor expressed in HEK293 cells after 120 mins

Ki [nM] | Structure (SMILES)
15 | COc1ccccc1N1CCN(CCN2C(=O)c3ccc(N(C)C)cc3C2=O)CC1
7.8 | COc1ccccc1N1CCN(CCCCCN2C(=O)c3ccc(N(C)C)cc3C2=O)CC1
73 | COc1ccccc1N1CCN(CCNS(=O)(=O)c2cccc3c(N(C)C)cccc23)CC1
116 | COc1ccccc1N1CCN(CCCN2C(=O)c3cccc4c(N)ccc(c34)C2=O)CC1
0.47 | COc1ccccc1N1CCN(CCCN2C(=O)c3ccc(N(C)C)cc3C2=O)CC1
44 | COc1ccccc1N1CCN(CCN2C(=O)c3cccc4c(N)ccc(c34)C2=O)CC1
151 | COc1ccccc1N1CCN(CCCCNS(=O)(=O)c2cccc3c(N(C)C)cccc23)CC1
54 | COc1ccccc1N1CCN(CCCCCNS(=O)(=O)c2cccc3c(N(C)C)cccc23)CC1
0.67 | COc1ccccc1N1CCN(CCCCCN2C(=O)c3cccc4c(N)ccc(c34)C2=O)CC1
0.5 | COc1ccccc1N1CCN(CCCCN2C(=O)c3ccc(N(C)C)cc3C2=O)CC1
29 | COc1ccccc1N1CCN(CCCNS(=O)(=O)c2cccc3c(N(C)C)cccc23)CC1
6.8 | COc1ccccc1N1CCN(CCCCN2C(=O)c3cccc4c(N)ccc(c34)C2=O)CC1
